Drawing on the METLIN SMRT retention time set (Domingo-Almenara et al. 2019), this text covers RP-LC retention time for 59 compounds.

The data set is described as follows: gradient 5% acetonitrile 3 min, to 50% in 2 min, to 85% in 15 min, held 3 min, 100 µL/min. The following applies: column: Zorbax Extend-C18 2.1 x 50 mm; eluents: water / acetonitrile, 0.1% formic acid. A digest of the protocol: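 A Zorbax Extend-C18 column (2.1 × 50 mm, 1.8 μm) run at 100 μL/min with water and acetonitrile, both containing 0.1% formic acid, separated mixtures of ~100 pure standards. The HPLC was coupled to a quadrupole time-of-flight mass spectrometer operated in positive and negative ionization mode, with dead and dwell volumes of 40 μL and 900 μL. Each retention time was taken from a computationally picked adduct peak that was then manually inspected.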
Take `COc1ccc(OC)c(NC(=O)N2CCC(N3CCN(Cc4ccc(C)cc4)C(=O)C3=O)CC2)c1`: the RP-LC retention time turned out to be 758 s. The value for `COc1ccc(C)cc1NC(=O)C1CCN(c2nc(C3CCC3)nc3csc(C)c23)CC1` was 847 s; that for `Cc1nc2c3ccccc3nc(NNC(=O)CCC(=O)N3CCN(c4ccccn4)CC3)n2n1` was 550 s; that for `CC(C)N1C(=O)C(C)(C(=O)NCc2ccc(Br)cc2)Oc2cccnc21` (centres undefined) was 1010 s. The compound `O=C(NCC(=O)N1CC2CN(S(=O)(=O)c3cccc(F)c3)CC(C1)O2)c1ccccc1` gave an RP-LC retention time of 730 s.

As for `COc1ccc(NC(=O)c2cnc(-c3ccc(OC)cc3)nc2-c2ccncc2)cc1`, the RP-LC retention time came to 829 s. The value for `CCOc1ccc(-c2[nH]ncc2CNS(=O)(=O)c2ccc(NC(C)=O)cc2)cc1` was 702 s; that for `COc1ccc(NC(=O)C2CCN(S(=O)(=O)c3cn(C)cn3)CC2)c(OC)c1` was 666 s; that for `O=C(c1ccoc1)N1CCCC(c2nc(-c3ccc(F)cc3)n[nH]2)C1` (centres undefined) was 710 s. The value for `CCC(=O)N(C1CCOCC1)C1CCN(S(=O)(=O)c2ccc(C)cc2C)CC1` was 880 s; that for `Cc1nn(C)cc1C(=O)NC1CCN(c2ccc(=O)n(C)n2)C1` (centres undefined) was 562 s. Consider `CCc1nc(N)n(CC(=O)NCc2ccccc2Cl)c(=O)c1C`, for which the RP-LC retention time was 616 s. In the case of `CCOc1ccc(CNC(=O)c2c(C)oc3c2C2=NCCN2C=N3)cc1`, the RP-LC retention time was found to be 668 s.

The compound `O=C(CSc1nc2ccccc2nc1SCC(=O)N1CCCC1)N1CCCC1` showed an RP-LC retention time of 743 s. `CSc1nc(=O)[nH]nc1Sc1ccccc1`: the RP-LC retention time was found to be 800 s.

In turn, `O=C(C1=CN(c2cccc(Cl)c2)c2ccccc2S1(=O)=O)N1CCOCC1` registered an RP-LC retention time of 782 s. With `O=C(CCc1nc2ccccc2[nH]1)N1CCC(c2noc(-c3ccncc3)n2)C1` (centres undefined), the RP-LC retention time turned out to be 557 s. The value for `O=C(c1cccs1)N1N=C(c2ccc3c(c2)OCO3)CC1c1ccco1` (centres undefined) was 919 s. Next, `COCCn1c(SCc2nc(-c3ccccc3C)no2)nc2cc3c(cc2c1=O)OCO3`: 1120 s; `COCCNC(=O)c1csc(N2CCN(c3ccc(OC)cc3)CC2)n1`: 767 s; `CCn1cc(CCNS(=O)(=O)c2cccc(F)c2)c2cccnc21`: 774 s.

`Cc1cccc(CN2C(=O)C3(CCOCC3)CC2c2nnnn2C(C)(C)C)c1` (centres undefined): the RP-LC retention time came to 833 s.

Take `COc1cc(OC)cc(C(=O)N(C)CCc2noc(C3CCCCC3)n2)c1`: the RP-LC retention time worked out at 926 s. For `COc1cccc(-c2nc(C3CC(=O)N(c4ccccc4)C3)no2)c1` (centres undefined), the RP-LC retention time stood at 943 s. `CCOc1ccccc1-c1nc(-c2cn(Cc3cccc(F)c3)nn2)no1` had an RP-LC retention time of 1010 s. The value for `CCOC(=O)c1c(C)[nH]c(C(=O)N2CCCC(C(=O)NCCCc3ccccc3)C2)c1C` (centres undefined) was 867 s; that for `O=C(NCCN1CCOCC1)c1csc(N2CCN(c3ccccc3)CC2)n1` was 650 s. Compound `COC(=O)c1cc2n(n1)CC(C)(C(=O)NC1CCC(C)CC1)N(Cc1ccccc1)C2=O` (centres undefined) showed an RP-LC retention time of 816 s. The value for `O=C(Cn1nc2c3sc(N4CCCCC4)nc3ncn2c1=O)Nc1ccc(F)c(Cl)c1` was 869 s; that for `Fc1ccc(OCc2nc(-c3ccc4c(c3)ncn4CCN3CCCC3)no2)cc1` was 657 s. The value for `COC(=O)c1c(C)[nH]c(C(=O)N2CCC(CC(=O)NCCN3CCCCC3C)CC2)c1C` (centres undefined) was 592 s; that for `CCn1cnc(S(=O)(=O)N2CCC(C(=O)Nc3ccccc3)CC2)c1` was 701 s; that for `CCNC(=O)c1n[nH]c2c1CN(Cc1sccc1C)CC2` was 572 s. The value for `COc1cc2c(C(=O)Oc3cccnc3)cn(-c3ccccc3)c(=O)c2cc1OC` was 836 s; that for `CC(=O)N1CCC2(CC1)OC(=O)C(C)=C2C(=O)NCCC1=CCCCC1` was 738 s.

Consider `O=C(O)c1ccc(Nc2ncnc3c2cnn3Cc2ccccc2)cc1`, for which the RP-LC retention time came to 772 s.

In turn, `CCOc1ccc(S(=O)(=O)N2CCC(C(=O)N3CCCCCC3)CC2)cc1C` showed an RP-LC retention time of 951 s. Turning to `Cc1ccc(C)c(N2CCN(C(=O)CN(C)S(=O)(=O)c3ccc4c(c3)CCCC(=O)N4)CC2)c1`, the RP-LC retention time was determined as 908 s.

The compound `CC(C)c1cc(C(=O)Nc2cccc(Cl)c2)nc2ccnn12` yielded an RP-LC retention time of 1230 s. Next, `Cc1ccc(CN2C(=O)N(c3cccc(F)c3)c3ncccc3S2(=O)=O)cc1`: 1100 s; `CCOc1ccccc1NS(=O)(=O)c1ccc(-c2c(C)noc2C)cc1`: 978 s; `Cc1cc(C)n(C(C[N+](=O)[O-])c2ccc(Cl)cc2Cl)n1` (centres undefined): 1110 s. Next, `CCc1c(C2CCN(C(=O)NCCc3ccccc3)CC2)noc1N`: 732 s; `COCC(=O)N(C1CCOCC1)C1CCN(S(=O)(=O)c2cccnc2)CC1`: 641 s; `O=C(Cc1csc(NC(=O)C2CC2)n1)Nc1ccc(Cl)c(Cl)c1`: 827 s. For the compound `O=C(CN1C(=O)COc2ccc(C(=O)N3CCCC3)cc21)Nc1ccccc1F`, the RP-LC retention time worked out at 694 s. The value for `Cc1oc(C2CCN(C(=O)Nc3ccccc3Cl)CC2)nc1C(=O)N(C)C` was 691 s; that for `CC(C(=O)NCCN(C)C)C1CCN(C(=O)c2cc3cc(Cl)ccc3[nH]2)CC1` (centres undefined) was 649 s. Next, `CCNC(=O)c1ccc(N2CCc3ccccc32)s1`: 824 s. The value for `COc1cccc(C(=O)NC2(C(F)(F)F)C(=O)N(C3CCCC3)C(C)=C2C(C)=O)c1` (centres undefined) was 964 s. Consider `CN1CCC(OC2CCN(C(=O)c3ccc(Cl)cc3)CC2)CC1`, for which the RP-LC retention time amounted to 601 s. The value for `COc1ccc(C2c3c(oc4ccc(Br)cc4c3=O)C(=O)N2C)cc1OC` (centres undefined) was 774 s. The value for `C=CCn1c(=O)c2ccccc2n(Cc2nc(-c3cccc(C)c3)no2)c1=O` was 1080 s; that for `Cc1ccc(-c2cn3c(CC(=O)Nc4cccc(C#N)c4)csc3n2)cc1C` was 855 s; that for `O=C1CC(C(F)(F)F)c2c(c(C(=O)O)cn2-c2ccc(Cl)cc2)N1` (centres undefined) was 786 s. In the case of `O=C(NCc1nnnn1-c1ccc(F)c(F)c1)c1cc(=O)c2ccccc2o1`, the RP-LC retention time is 707 s. Consider `CCN1C(=O)C2(CCN(S(=O)(=O)c3cc(C)ccc3C)CC2)c2ccccc21`, for which the RP-LC retention time was found to be 1110 s.

Compound `O=C(c1ccc2c(=O)n3c(nc2c1)CCCC3)N1CCN(c2ccccn2)CC1` had an RP-LC retention time of 564 s. On to `COC(=O)c1ccc(NC(=O)N2CCCC2c2cc(C(C)C)on2)cc1` (centres undefined), for which the RP-LC retention time was determined as 890 s.
